Peptide text beside a SMILES is read from it.
Key:
Assay type in all cases: functional
[1] = test system: Fusarium sp.; assay: Antifungal activity against Fusarium sp. after 48 hrs by broth microdilution
[2] = test system: Aspergillus sp.; assay: Antifungal activity against Aspergillus sp. after 48 hrs by broth microdilution
[3] = test system: Curvularia; assay: Antifungal activity against Curvularia species after 48 hrs by broth microdilution
[4] = test system: Paecilomyces variotii; assay: Antifungal activity against Paecilomyces variotii after 48 hrs by broth microdilution
[5] = test system: Penicillium sp.; assay: Antifungal activity against Penicillium sp. after 48 hrs by broth microdilution
[6] = test system: Talaromyces marneffei; assay: Antifungal activity against Penicillium marneffei after 48 hrs by broth microdilution
[7] = test system: Candida tropicalis; assay: Antifungal activity against Candida tropicalis after 48 hrs by broth microdilution
[8] = test system: Candida albicans; assay: Antifungal activity against Candida albicans after 48 hrs by broth microdilution
[9] = test system: Pichia kudriavzevii; assay: Antifungal activity against Candida krusei after 48 hrs by broth microdilution
[10] = test system: Candida parapsilosis; assay: Antifungal activity against Candida parapsilosis after 48 hrs by broth microdilution
[11] = test system: Nakaseomyces glabratus; assay: Antifungal activity against Candida glabrata after 48 hrs by broth microdilution
[12] = test system: Pichia kudriavzevii; assay: Antifungal activity against Candida krusei assessed as resistant isolates after 48 hrs by broth microdilution
[13] = test system: Candida albicans; assay: Antifungal activity against Candida albicans assessed as resistant isolates after 48 hrs by broth microdilution
[14] = test system: Candida parapsilosis; assay: Antifungal activity against Candida parapsilosis assessed as susceptible isolates after 48 hrs by broth microdilution
[15] = test system: Candida tropicalis; assay: Antifungal activity against Candida tropicalis assessed as resistant isolates after 48 hrs by broth microdilution
[16] = test system: Nakaseomyces glabratus; assay: Antifungal activity against Candida glabrata assessed as resistant isolates after 48 hrs by broth microdilution
[17] = test system: Pichia kudriavzevii; assay: Antifungal activity against Candida krusei assessed as susceptible isolates after 48 hrs by broth microdilution
[18] = test system: Candida albicans; assay: Antifungal activity against Candida albicans assessed as susceptible isolates after 48 hrs by broth microdilution
[19] = test system: Nakaseomyces glabratus; assay: Antifungal activity against Candida glabrata assessed as susceptible isolates after 48 hrs by broth microdilution
[20] = test system: Candida parapsilosis; assay: Antifungal activity against Candida parapsilosis assessed as resistant isolates after 48 hrs by broth microdilution
[21] = test system: Candida tropicalis; assay: Antifungal activity against Candida tropicalis assessed as susceptible isolates after 48 hrs by broth microdilution

C[C@@H]1[C@H](O)[C@@H](C)/C=C/C=C/C=C/C=C/C=C/C=C/C=C/[C@H](O[C@@H]2O[C@H](C)[C@@H](O)[C@H](N)[C@@H]2O)C[C@@H]2O[C@](O)(C[C@@H](O)C[C@@H](O)[C@H](O)CC[C@@H](O)C[C@@H](O)CC(=O)O[C@H]1C)C[C@H](O)[C@H]2C(=O)O [AMPHOTERICIN B]
0.25 µg/mL: MIC50 [1] | MIC50 [3] | MIC50 [4] | MIC50 [5] | MIC50 [6]
0.5 µg/mL: MIC90 [1] | MIC50 [2] | MIC90 [3] | MIC90 [4] | MIC90 [5] | MIC90 [6]
2 µg/mL: MIC90 [9]
1 µg/mL: MIC90 [2] | MIC50 [7] | MIC90 [7] | MIC50 [8] | MIC90 [8] | MIC50 [9] | MIC ([10]; Lodderomyces parapsilosis) | MIC50 ([10]; Lodderomyces parapsilosis) | MIC90 ([10]; Lodderomyces parapsilosis) | MIC50 [11] | MIC90 [11]

CC[C@H](C)[C@H](N)C(=O)N[C@@H](CC(C)C)C(=O)N[C@@H](CCCNC(=N)N)C(=O)N[C@@H](Cc1c[nH]c2ccccc12)C(=O)N1CCC[C@H]1C(=O)N[C@@H](Cc1c[nH]c2ccccc12)C(=O)N[C@@H](Cc1c[nH]c2ccccc12)C(=O)N1CCC[C@H]1C(=O)N[C@@H](Cc1c[nH]c2ccccc12)C(=O)N[C@@H](CCCNC(=N)N)C(=O)N[C@@H](CCCNC(=N)N)C(=O)N[C@@H](CCCCN)C(N)=O.Cl.Cl.Cl.Cl.Cl [OMIGANAN PENTAHYDROCHLORIDE] (H-ILRWPWWPWRRK-NH2)
1020 µg/mL: MIC90 [2]
128 µg/mL: MIC50 [2] | MIC90 [8] | MIC90 [9] | MIC50 ([10]; Lodderomyces parapsilosis)
256 µg/mL: MIC90 [1] | MIC90 [3] | MIC90 [4] | MIC90 [5] | MIC90 [6] | MIC90 ([10]; Lodderomyces parapsilosis) | MIC50 [11] | MIC90 [11]
64 µg/mL: MIC50 [1] | MIC50 [3] | MIC50 [4] | MIC50 [5] | MIC50 [6] | MIC50 [8] | MIC50 [9]
32 µg/mL: MIC50 [7] | MIC90 [7]

OC(Cn1cncn1)(Cn1cncn1)c1ccc(F)cc1F [FLUCONAZOLE]
32 µg/mL: MIC [9] | MIC50 [9]
1 µg/mL: MIC50 [8]
> 64 µg/mL: MIC50 [1] | MIC90 [1] | MIC50 [2] | MIC90 [2] | MIC50 [3] | MIC90 [3] | MIC50 [4] | MIC90 [4] | MIC50 [5] | MIC90 [5] | MIC50 [6] | MIC90 [6] | MIC90 [7] | MIC90 [8] | MIC90 [11]
18.2%: Activity [15] | Activity [16]
0%: Activity [17] | Activity [20]
100%: Activity [12]
30.8%: Activity [13]
0.25 µg/mL: MIC50 [7]
4 µg/mL: MIC50 [11]
81.8%: Activity [14] | Activity [21]
16 µg/mL: MIC90 ([10]; Lodderomyces parapsilosis)
67.3%: Activity [18]
0.5 µg/mL: MIC ([10]; Lodderomyces parapsilosis) | MIC50 ([10]; Lodderomyces parapsilosis)
77.3%: Activity [19]
64 µg/mL: MIC90 [9]

C[C@@H](c1ncncc1F)[C@](O)(Cn1cncn1)c1ccc(F)cc1F [VORICONAZOLE]
0.03 µg/mL: MIC50 [8]
0.5 µg/mL: MIC90 [9]
75%: Activity [18]
16 µg/mL: MIC90 [7]
27.3%: Activity [15]
86.4%: Activity [19]
0%: Activity [12] | Activity [16] | Activity [20]
72.7%: Activity [21]
0.12 µg/mL: MIC90 ([10]; Lodderomyces parapsilosis)
> 16 µg/mL: MIC90 [8]
0.06 µg/mL: MIC50 [11]
2 µg/mL: MIC90 [1] | MIC90 [3] | MIC90 [4] | MIC90 [5] | MIC90 [6] | MIC90 [11]
100%: Activity [14] | Activity [17]
0.25 µg/mL: MIC50 [1] | MIC50 [2] | MIC90 [2] | MIC50 [3] | MIC50 [4] | MIC50 [5] | MIC50 [6] | MIC50 [9]
0.015 µg/mL: MIC [7] | MIC50 [7] | MIC50 ([10]; Lodderomyces parapsilosis)
25%: Activity [13]

NYSTATIN
8 µg/mL: MIC50 [1] | MIC50 [3] | MIC50 [4] | MIC50 [5] | MIC50 [6] | MIC50 [7] | MIC90 [7] | MIC50 [8] | MIC90 [8] | MIC50 [9] | MIC90 [9] | MIC50 [10] | MIC90 [10] | MIC50 [11] | MIC90 [11]
16 µg/mL: MIC90 [1] | MIC50 [2] | MIC90 [2] | MIC90 [3] | MIC90 [4] | MIC90 [5] | MIC90 [6]

CCC(C)n1ncn(-c2ccc(N3CCN(c4ccc(OCC5COC(Cn6cncn6)(c6ccc(Cl)cc6Cl)O5)cc4)CC3)cc2)c1=O (centres undefined) [ITRACONAZOLE]
> 16 µg/mL: MIC90 [1] | MIC90 [3] | MIC90 [4] | MIC90 [5] | MIC90 [6]
0.03 µg/mL: MIC50 [2] | MIC50 [7]
0.25 µg/mL: MIC90 ([10]; Lodderomyces parapsilosis)
50%: Activity [18]
0.12 µg/mL: MIC90 [7] | MIC50 [8] | MIC50 [11]
0%: Activity [12] | Activity [15] | Activity [20]
63.6%: Activity [14]
72.7%: Activity [19]
0.06 µg/mL: MIC50 [1] | MIC90 [2] | MIC50 [3] | MIC50 [4] | MIC50 [5] | MIC50 [6] | MIC50 ([10]; Lodderomyces parapsilosis)
4.6%: Activity [16]
10%: Activity [17]
0.5 µg/mL: MIC50 [9] | MIC90 [9] | MIC90 [11]
16 µg/mL: MIC90 [8]
48.1%: Activity [13]
100%: Activity [21]

Nc1nc(=O)[nH]cc1F [FLUCYTOSINE]
1 µg/mL: MIC90 [8]
0%: Activity [13] | Activity [15] | Activity [16] | Activity [17] | Activity [20]
0.06 µg/mL: MIC [7] | MIC50 [7] | MIC50 [11] | MIC90 [11]
100%: Activity [14] | Activity [18] | Activity [19] | Activity [21]
32 µg/mL: MIC90 [9]
> 64 µg/mL: MIC50 [1] | MIC90 [1] | MIC50 [2] | MIC90 [2] | MIC50 [3] | MIC90 [3] | MIC50 [4] | MIC90 [4] | MIC50 [5] | MIC90 [5] | MIC50 [6] | MIC90 [6]
30%: Activity [12]
0.12 µg/mL: MIC90 [7] | MIC50 [8] | MIC50 ([10]; Lodderomyces parapsilosis) | MIC90 ([10]; Lodderomyces parapsilosis)
16 µg/mL: MIC50 [9]

From ChEMBL document CHEMBL1255262, “Antimicrobial activity of omiganan pentahydrochloride against contemporary fungal pathogens responsible for catheter-associated infections” (2008)
